Data published in patent US11414431B2, “Substituted pyrazolo[1,5-a]pyrimidines as TYK2 inhibitors” (Nimbus Lakshmi, Inc., priority 2018, dated 2022).

System: IL-12 induced STAT4 phosphorlyation mediated by TYK2/JAK2
Experiment: IL-12 Induced pSTAT4 in Human PBMC
Assay type: cell-based
Settings: 1.7 ng/mL IL-12 for 30 minutes
Method: Human PBMC were isolated from buffy coat and are stored frozen for assays as needed. […] 15 μL of compound or DMSO was added to the well at the desired concentrations and incubated at 1 hr at 37° C. 15 μL of stimulus (final concentration of 1.7 ng/mL IL-12) was added for 30 minutes prior to pSTAT4 and total STAT4 analysis using cell lysates prepared and analyzed by MSD reagents as per manufacturer protocol. The final DMSO concentration of compound in the assay was 0.1%.
The IL-12 induced pSTAT4 assay evaluates the inhibition of IL-12 induced STAT4 phosphorlyation mediated by TYK2/JAK2 (heterpdimeric complex).

IC50 [µM] | Compound
< 0.1 | CNc1cc(Nc2cccn([C@H]3CC[C@H]3O)c2=O)nc2c(C(=O)N[C@@H]3CC[C@H]3F)cnn12 [Compound I-169]
< 0.1 | CNc1cc(Nc2cccn([C@H]3C[C@H](OC)C3)c2=O)nc2c(C(=O)N[C@@H]3CC[C@H]3F)cnn12 [Compound I-178]
< 0.1 | CNc1cc(Nc2cccn([C@@H]3CCC[C@@H]3O)c2=O)nc2c(C(=O)N[C@@H]3CC[C@H]3F)cnn12 [Compound I-181]
< 0.1 | CNc1cc(Nc2cccn(C3CCOCC3)c2=O)nc2c(C(=O)NC3CC[C@H]3F)cnn12 (stereo partly shown) [Compound I-191]
< 0.1 | CNc1cc(Nc2cccn([C@H]3CCCOC3)c2=O)nc2c(C(=O)NC3CC[C@@H]3F)cnn12 (stereo partly shown) [Compound I-197]
< 0.1 | CNc1cc(Nc2cccn([C@H]3CCCOC3)c2=O)nc2c(C(=O)N[C@H]3CC[C@@H]3F)cnn12 [Compound I-198]
< 0.1 | CNc1cc(Nc2cccn(-c3ccccn3)c2=O)nc2c(C(=O)NC3CC[C@@H]3F)cnn12 (stereo partly shown) [Compound I-200]
< 0.1 | CNc1cc(Nc2cccn(-c3ccccn3)c2=O)nc2c(C(=O)N[C@H]3CC[C@@H]3F)cnn12 [Compound I-201]
< 0.1 | CNc1cc(Nc2cccn([C@H]3[C@@H]4COC[C@@H]43)c2=O)nc2c(C(=O)NC3CC[C@H]3F)cnn12 (stereo partly shown) [Compound I-203]
< 0.1 | CNc1cc(Nc2cccn([C@H]3[C@@H]4COC[C@@H]43)c2=O)nc2c(C(=O)N[C@@H]3CC[C@@H]3F)cnn12 [Compound I-205]
< 0.1 | CNc1cc(Nc2cccn([C@H]3[C@@H]4COC[C@@H]43)c2=O)nc2c(C(=O)NC3CC[C@@H]3F)cnn12 (stereo partly shown) [Compound I-206]
< 0.1 | CNc1cc(Nc2cccn([C@H]3CC[C@H](OC)CC3)c2=O)nc2c(C(=O)NC3CC[C@@H]3F)cnn12 (stereo partly shown) [Compound I-224]
< 0.1 | CNc1cc(Nc2cccn([C@@H]3CCC[C@@H](OC)C3)c2=O)nc2c(C(=O)NC3CC[C@@H]3F)cnn12 (stereo partly shown) [Compound I-227]
< 0.1 | CNc1cc(Nc2cccn([C@@H]3CCOC[C@@H]3OC)c2=O)nc2c(C(=O)N[C@@H]3CC[C@@H]3F)cnn12 [Compound I-235]
< 0.1 | CNc1cc(Nc2cccn(C3CCN(CCF)CC3)c2=O)nc2c(C(=O)NC3CC[C@@H]3F)cnn12 (stereo partly shown) [Compound I-236]
< 0.1 | CNc1cc(Nc2cccn([C@@H]3CC[C@H]3OC)c2=O)nc2c(C(=O)N[C@H]3CC[C@H]3O)cnn12 [Compound I-243]
< 0.1 | CNc1cc(Nc2cccn([C@H]3C[C@H](OC)C3)c2=O)nc2c(C(=O)N[C@H]3CC[C@@H]3OC)cnn12 [Compound I-255]
< 0.1 | CNc1cc(Nc2cccn(-c3ncccc3F)c2=O)nc2c(C(=O)NC3CC[C@H]3OC)cnn12 (stereo partly shown) [Compound I-265]
< 0.1 | CNc1cc(Nc2cccn([C@@H]3C[C@H]3F)c2=O)nc2c(C(=O)NC3CCC3(F)F)cnn12 (stereo partly shown) [Compound I-274]
< 0.1 | CNc1cc(Nc2cccn(C3COC3)c2=O)nc2c(C(=O)NC3CCC3(F)F)cnn12 (stereo not shown) [Compound I-280]
< 0.1 | CNc1cc(Nc2cccn([C@H]3CC[C@H]3O)c2=O)nc2c(C(=O)N[C@H]3CCC3(F)F)cnn12 [Compound I-287]
< 0.1 | CNc1cc(Nc2cccn([C@H]3C[C@H](OC)C3)c2=O)nc2c(C(=O)NC3CCC3(F)F)cnn12 (stereo partly shown) [Compound I-292]
< 0.1 | CNc1cc(Nc2cccn([C@H]3C[C@@H](OC)C3)c2=O)nc2c(C(=O)NC3CCC3(F)F)cnn12 (stereo partly shown) [Compound I-295]
< 0.1 | CNc1cc(Nc2cccn([C@@H]3CCC[C@@H]3O)c2=O)nc2c(C(=O)N[C@@H]3CCC3(F)F)cnn12 [Compound I-305]

Continued, molecule first:

Compound | IC50 [µM]
CNc1cc(Nc2cccn([C@H]3C[C@@H](OC)C3)c2=O)nc2c(C(=O)N[C@H]3CC[C@@H]3F)cnn12 [Compound I-174] | < 0.1
CNc1cc(Nc2cccn([C@@H]3CCC[C@@H]3O)c2=O)nc2c(C(=O)NC3CC[C@@H]3F)cnn12 (stereo partly shown) [Compound I-179] | < 0.1
CNc1cc(Nc2cccn(C3CCOCC3)c2=O)nc2c(C(=O)NC3CC[C@@H]3F)cnn12 (stereo partly shown) [Compound I-188] | < 0.1
CNc1cc(Nc2cccn(C3CCOCC3)c2=O)nc2c(C(=O)N[C@@H]3CC[C@H]3F)cnn12 [Compound I-190] | < 0.1
CNc1cc(Nc2cccn(C3CCOCC3)c2=O)nc2c(C(=O)N[C@H]3CC[C@H]3F)cnn12 [Compound I-192] | < 0.1
CNc1cc(Nc2cccn(C3CCOCC3)c2=O)nc2c(C(=O)N[C@@H]3CC[C@@H]3F)cnn12 [Compound I-193] | < 0.1
CNc1cc(Nc2cccn([C@@H]3CCCOC3)c2=O)nc2c(C(=O)NC3CC[C@@H]3F)cnn12 (stereo partly shown) [Compound I-194] | < 0.1
CNc1cc(Nc2cccn([C@@H]3CCCOC3)c2=O)nc2c(C(=O)N[C@@H]3CC[C@H]3F)cnn12 [Compound I-196] | < 0.1
CNc1cc(Nc2cccn([C@H]3[C@@H]4COC[C@@H]43)c2=O)nc2c(C(=O)N[C@H]3CC[C@H]3F)cnn12 [Compound I-204] | < 0.1
CNc1cc(Nc2cccn([C@H]3[C@@H]4COC[C@@H]43)c2=O)nc2c(C(=O)N[C@@H]3CC[C@H]3F)cnn12 [Compound I-208] | < 0.1
CNc1cc(Nc2cccn([C@@H]3CCCC[C@@H]3O)c2=O)nc2c(C(=O)NC3CC[C@@H]3F)cnn12 (stereo partly shown) [Compound I-209] | < 0.1
CNc1cc(Nc2cccn([C@@H]3CCCC[C@@H]3O)c2=O)nc2c(C(=O)N[C@@H]3CC[C@H]3F)cnn12 [Compound I-211] | < 0.1
CNc1cc(Nc2cccn([C@H]3CCCC[C@H]3O)c2=O)nc2c(C(=O)NC3CC[C@@H]3F)cnn12 (stereo partly shown) [Compound I-212] | 0.1 to 0.5
CNc1cc(Nc2cccn([C@H]3CCCC[C@H]3O)c2=O)nc2c(C(=O)N[C@@H]3CC[C@H]3F)cnn12 [Compound I-214] | < 0.1
CNc1cc(Nc2cccn([C@@H]3CCOC[C@@H]3OC)c2=O)nc2c(C(=O)N[C@@H]3CC[C@H]3F)cnn12 [Compound I-217] | < 0.1
CNc1cc(Nc2cccn([C@H]3CC[C@H](OC)CC3)c2=O)nc2c(C(=O)N[C@H]3CC[C@@H]3F)cnn12 [Compound I-225] | < 0.1
CNc1cc(Nc2cccn([C@@H]3CCC[C@@H](OC)C3)c2=O)nc2c(C(=O)N[C@H]3CC[C@@H]3F)cnn12 [Compound I-228] | < 0.1
CNc1cc(Nc2cccn([C@H]3CCC[C@H](OC)C3)c2=O)nc2c(C(=O)NC3CC[C@@H]3F)cnn12 (stereo partly shown) [Compound I-230] | < 0.1
CNc1cc(Nc2cccn([C@H]3CCC[C@H](OC)C3)c2=O)nc2c(C(=O)N[C@H]3CC[C@@H]3F)cnn12 [Compound I-231] | < 0.1
CNc1cc(Nc2cccn(C3CCN(CCF)CC3)c2=O)nc2c(C(=O)N[C@H]3CC[C@@H]3F)cnn12 [Compound I-237] | < 0.1

Compound | IC50 [µM]
CNc1cc(Nc2cccn([C@H]3CC[C@@H]3OC)c2=O)nc2c(C(=O)NC3CC[C@H]3O)cnn12 (stereo partly shown) [Compound I-239] | < 0.1
CNc1cc(Nc2cccn([C@H]3CC[C@@H]3OC)c2=O)nc2c(C(=O)N[C@H]3CC[C@H]3O)cnn12 [Compound I-240] | < 0.1
CNc1cc(Nc2cccn([C@H]3C[C@@H](OC)C3)c2=O)nc2c(C(=O)N[C@H]3CC[C@@H]3OC)cnn12 [Compound I-253] | < 0.1
CNc1cc(Nc2cccn([C@H]3CCC[C@@H](C#N)C3)c2=O)nc2c(C(=O)N[C@@H]3CC[C@H]3OC)cnn12 [Compound I-258] | < 0.1
CNc1cc(Nc2cccn([C@@H]3CCC[C@H](C#N)C3)c2=O)nc2c(C(=O)N[C@@H]3CC[C@H]3OC)cnn12 [Compound I-260] | < 0.1
CNc1cc(Nc2cccn([C@H]3[C@@H]4COC[C@@H]43)c2=O)nc2c(C(=O)N[C@@H]3CC[C@H]3OC)cnn12 [Compound I-262] | < 0.1
CNc1cc(Nc2cccn(-c3ccccn3)c2=O)nc2c(C(=O)N[C@@H]3CC[C@H]3OC)cnn12 [Compound I-264] | < 0.1
CNc1cc(Nc2cccn(-c3ncccc3F)c2=O)nc2c(C(=O)N[C@@H]3CC[C@H]3OC)cnn12 [Compound I-266] | < 0.1
CNc1cc(Nc2cccn([C@@H]3C[C@H]3F)c2=O)nc2c(C(=O)N[C@@H]3CCC3(F)F)cnn12 [Compound I-276] | < 0.1
CNc1cc(Nc2cccn([C@H]3C[C@@H]3F)c2=O)nc2c(C(=O)NC3CCC3(F)F)cnn12 (stereo partly shown) [Compound I-277] | < 0.1
CNc1cc(Nc2cccn([C@H]3C[C@@H]3F)c2=O)nc2c(C(=O)N[C@@H]3CCC3(F)F)cnn12 [Compound I-279] | < 0.1
CNc1cc(Nc2cccn(C3COC3)c2=O)nc2c(C(=O)N[C@@H]3CCC3(F)F)cnn12 [Compound I-282] | < 0.1
CNc1cc(Nc2cccn([C@H]3C[C@H](F)C3)c2=O)nc2c(C(=O)NC3CCC3(F)F)cnn12 (stereo partly shown) [Compound I-283] | < 0.1
CNc1cc(Nc2cccn([C@H]3C[C@H](F)C3)c2=O)nc2c(C(=O)N[C@@H]3CCC3(F)F)cnn12 [Compound I-285] | < 0.1
CNc1cc(Nc2cccn([C@H]3CC[C@H]3O)c2=O)nc2c(C(=O)NC3CCC3(F)F)cnn12 (stereo partly shown) [Compound I-286] | < 0.1
CNc1cc(Nc2cccn([C@@H]3CC[C@@H]3O)c2=O)nc2c(C(=O)N[C@H]3CCC3(F)F)cnn12 [Compound I-290] | < 0.1
CNc1cc(Nc2cccn([C@H]3C[C@H](OC)C3)c2=O)nc2c(C(=O)N[C@H]3CCC3(F)F)cnn12 [Compound I-293] | < 0.1
CNc1cc(Nc2cccn([C@H]3C[C@@H](OC)C3)c2=O)nc2c(C(=O)N[C@H]3CCC3(F)F)cnn12 [Compound I-296] | < 0.1
CNc1cc(Nc2cccn([C@@H]3CCC[C@@H]3O)c2=O)nc2c(C(=O)NC3CCC3(F)F)cnn12 (stereo partly shown) [Compound I-303] | < 0.1
CNc1cc(Nc2cccn([C@H]3[C@@H]4COC[C@@H]43)c2=O)nc2c(C(=O)NC3CCC3(F)F)cnn12 (stereo partly shown) [Compound I-306] | < 0.1
